“Also recorded” adds a separate entry of the source.
Key:
isolated erythrocyte = conditions: in vitro; cited from earlier work
NPC-derived HLCs [1] = test: Cell size of HLCs; type: cell-based, human; conditions: data not shown
Procedure: The cell sizes of albumin-positive cells was calculated by Developer Toolbox software of IN CELL ANALYZER 6000 (GE Healthcare).
(§1) The size of HLCs is decreased by the treatments with HPBCD and HPGCD (data not shown). Effects of various concentration of HPBCD and HPGCD in NPC-derived HLCs was observes. HLCs were cultured with HPBCD or HPGCD for 4 days, stained with filipin and analyzed with an IN CELL ANALYSER (GE Healthcare).

LC3 = test: Immunoblot of LC3 expression in HLCs; type: cell-based, human; conditions: 1 mM HPCD, 4 days; FIG. 22
Procedure: (§2) Protein lysates were separated by SDS-PAGE and transferred to PVDF membrane. LC3-I and LCS3-II were detected by anti-LC3 antibody (Cell Signaling). The data are normalized to α-tubulin expression. The HLCs were solved in RIPA buffer and then insoluble p62 was collected as a pellet after the centrifuge of the samples.
(§3) HLCs were culture with 1 mM 2-hydroxypropylcyclodextrins (HPCDs) for 4 days, and ATP level, expression levels of LC3 and p62, and insoluble p62 granules were measured.

NPC model mice [2] = test: Survival of NPC model mice; type: in vivo, mouse; conditions: 4-week-old model mice injected once a week; FIG. 33
Procedure: To evaluate the effect of HPGCD treatment on NPC mice survival, 4-week-old model mice were injected with HPGCD one a week (HPGCD injection group: n=6, control (saline injection) group: n=6).

p62 [3] = test: Count of insoluble p62 granules in HLCs (IN CELL ANALYZER); type: cell-based, human; conditions: 1 mM HPCD, 4 days; FIG. 24
Procedure: Alkaline phosphatase staining was performed using the Leukocyte Alkaline Phosphatase kit (SIGMA). For immunocytochemistry, cells were fixed with PBS containing 4% paraformaldehyde for 30 min at 4° C. For the molecules localized in nucleus, samples were treated with 0.2% Triton X-100 for 15 min at room temperature (RT). The cells were washed three times with PBS containing 2% FBS and then incubated overnight at 4° C. in PBS containing 2% FBS with primary antibodies. Nucleuses were stained with Propidium Iodide (PI, WAKO, Japan) and 1 mg/ml Hoechst 33258 (Invitrogen). The list of the primary and secondary antibodies is described in Table 3. For Filipin staining, samples were washed with PBS three times after the fixing and incubated with PBS containing 1.5 mg/ml glycine for 10 min at RT. The samples were then treated with PBS containing 10% FBS and 50 mg/ml Filipin (SIGMA). The data was calculated by UV absorption (360/460) and analyzed with Developer Toolbox software of IN CELL ANALYZER 6000 (GE Healthcare). The number of insoluble p62 granules were counted by IN CELL ANALYZER 6000 (GE Healthcare). […]
as §3

NPC model mice [4] = test: HPGCD treatment of NPC model mice (serum markers, histology, autophagy); type: in vivo, mouse
Procedure: Effects of HPGCD treatment on cholesterol accumulation in NPC-derived HLCs were evaluated using NPC-model mice. NPC model mice bear a spontaneous mutation of the Npc1 gene that causes a defect in lysosome to ER trafficking of cholesterol. […] The model mice show liver injury and neural functional impairment and die before 12 weeks old without proper treatment.
4-week-old NPC mice were treated with HPGCD (4000 mg/kg) once a week until 8.5 weeks of age (5 injections in total), followed by sample collection. Control was treated with saline. The experiments were conducted twice (first; n=6; second: n=4).

NPC-derived HLCs [5] = type: cell-based, human
Procedure: For hepatocyte-like cell (HLC) induction, the culture medium of semi-confluent human iPS cells were switched from the iPS medium to the definitive endoderm differentiation medium containing RPMI1640 supplemented with 2% B27 (Life technologies), 100 ng/m1 Activin A and 1 mM Sodium butyrate (NaB, SIGMA). The NaB concentration is changed in 0.5 mM on day 2. On day 4, the cells were harvested and re-seeded onto Matrigel-coated dishes in hepatic differentiation medium containing DMEM supplemented with 20% KSR, 1 mM glutamine, 1 mM NEAA, 0.1 mM 2-mercaptoethanol (SIGMA), 1% Dimethyl sulfoxide (DMSO, SIGMA). CXCR4 expressions were examined by FACS on day 4. On day 11, the cells were harvested and re-cultured in the hepatic maturation medium containing L15 medium (SIGMA) supplemented with 8.3% FBS, 8.3% tryptose phosphate broth (SIGMA), 10 mM hydrocortisone 21-hemisuccinate (SIGMA), 1 mM insulin (SIGMA), 2 mM glutamine, lOng/ml Hepatocyte growth factor (HGF, R & D) and 20 ng/ml Oncostatin M (OSM, R & D). On day 18, the cells were used for various experiments. For the hydroxypropyl cyclodextrin treatments, HLCs were cultured with 0.1 mM or 1 mM of the hydroxypropyl cyclodextrins for four days. For Annexin and TUNEL stainings, HLCs are cultured for four days and a week from day 18, respectively.
Alkaline phosphatase staining was performed using the Leukocyte Alkaline Phosphatase kit (SIGMA). For immunocytochemistry, cells were fixed with PBS containing 4% paraformaldehyde for 30 min at 4° C. For the molecules localized in nucleus, samples were treated with 0.2% Triton X-100 for 15 min at room temperature (RT). The cells were washed three times with PBS containing 2% FBS and then incubated overnight at 4° C. in PBS containing 2% FBS with primary antibodies. Nucleuses were stained with Propidium Iodide (PI, WAKO, Japan) and 1 mg/ml Hoechst 33258 (Invitrogen). The list of the primary and secondary antibodies is described in Table 3. For Filipin staining, samples were washed with PBS three times after the fixing and incubated with PBS containing 1.5 mg/ml glycine for 10 min at RT. The samples were then treated with PBS containing 10% FBS and 50 mg/ml Filipin (SIGMA). The data was calculated by UV absorption (360/460) and analyzed with Developer Toolbox software of IN CELL ANALYZER 6000 (GE Healthcare). The number of insoluble p62 granules were counted by IN CELL ANALYZER 6000 (GE Healthcare). To investigate glycogen accumulation, Periodic acid Schiff (PAS) staining of hepatocyte-like cells were performed by PAS staining solution (Muto Pure chemicals, Tokyo, Japan), according to the manufacturer's protocol.
The inventors therefore treated the HLCs derived from normal and NPC-iPS cell lines with a series of 2-hydroxypropyl-cyclodextrins with different cavity sizes, and observed effect of a series of hydroxypropyl-cyclodextrins. HLCs were cultured with 1 mM of the indicated hydroxypropyl-cyclodextrin for 4 days, stained with filipin and analyzed with an IN CELL ANALYSER (GE Healthcare) (FIG. 18).
as §1

p62 [6] = test: Immunoblot of insoluble p62 in HLCs; type: cell-based, human; conditions: 1 mM HPCD, 4 days; FIG. 23
Procedure: as §2, §3

NPC-derived HLCs [7] = test: Measurement of ATP in HLCs; type: cell-based, human; conditions: 1 mM HPCD, 4 days; FIG. 21
Procedure: Hepatocyte-like cells derived from the iPSC lines were cultured in DMEM medium in the absence of glucose for 24 hours and were then cultured in the DMEM medium containing 10% FBS and high glucose for 6 hours. ATP was measured by ATP measurement Kit (TOYO INK), according to the manufacturer's protocol.
as §3

cultured cells = conditions: Non-Patent Document 5; cited from earlier work
normal mice = test: Acute toxicity test in normal mice; type: in vivo, mouse; conditions: 14.4 mM, 19.18 ml/g subcutaneous, 8-week-old normal mice; FIG. 34
Procedure: To confirm the excellent safety of HPGCD, acute toxicity was tested using normal mice. 14.4 mM HPBCD or HPGCD were injected in the amount of 19.18 ml/g into subcutaneous tissues of 8-week-old mice (n=10), and then survival rates were calculated.

[8] = 4000 mg/kg once a week from 4 to 8.5 weeks of age, FIG. 30

2-hydroxypropyl-γ-cyclodextrin [HPGCD]
hemolytic activity (order) (isolated erythrocyte): HPBCD>HPACD>HPGCD
size of HLCs (NPC-derived HLCs [1]): decreased
expression level of LC3 (LC3): recovered to normal levels
NPC mouse survival (NPC model mice [2]): significantly prolonged
proportion of HLCs carrying more than 40 granules of insoluble p62 aggregation (p62 [3]): greatly reduced
ALT (alanine aminotransferase), serum marker for liver injury (NPC model mice [4]; [8]): markedly and significantly reduced
AST (aspartate aminotransferase), serum marker for liver injury (NPC model mice [4]; [8]): markedly and significantly reduced
histological analysis of livers (NPC model mice [4]; 4000 mg/kg once a week, FIG. 31): marked morphological improvement
deletion of Purkinje cells in the cerebellum (NPC model mice [4]; 4000 mg/kg once a week, FIG. 32): rescued; also recorded: restored
abnormal autophagy in NPC mice (NPC model mice [4]; data not shown): restored
expression level of LC3 in livers and brains (NPC model mice [4]; data not shown): restored to the normal level
expression level of insoluble p62 in livers and brains (NPC model mice [4]; data not shown): restored to the normal level
activity on hepatocyte-like cells differentiation-induced from NPC patient-derived iPS cells (NPC-derived HLCs [5]): equal to or more than that of HPBCD
cholesterol accumulated in hepatocyte-like cells derived from NPC (NPC-derived HLCs [5]): removed cholesterol accumulated in hepatocyte-like cells derived from NPC
function of the hepatocyte-like cells (NPC-derived HLCs [5]): recovered the function of the hepatocyte-like cells
cholesterol accumulation in NPC-HLCs (filipin staining) (NPC-derived HLCs [5]; 1 mM hydroxypropyl-cyclodextrin, 4 days, FIG. 18): reduced the cholesterol accumulation in NPC-HLCs to the same extent as that observed for HPBCD
cholesterol accumulation in NPC-derived HLCs (filipin staining) (NPC-derived HLCs [5]; low concentration 100 μM, 4 days, FIG. 19): ineffective for reducing cholesterol accumulation
amount of insoluble p62 (p62 [6]): reduced the amount of insoluble p62
ATP level (NPC-derived HLCs [7]): recovered
cholesterol dissolution activity (cultured cells): a several tenth part or less, compared with that of HPBCD
survival after injection (acute toxicity) (normal mice): no mice dies
